Here are results for 90 compounds from a melting point compilation (Tetko et al.; mined from patent text by program, amines drawn as free bases though some values may be those of a salt).

Structures are written as SMILES.

For orientation: melting point means the temperature of the solid-liquid transition. Consider `O=C(N[C@@H](Cc1ccc(C(F)(F)F)cc1)[C@H](O)c1ccc(F)cc1)c1ccc(C(F)F)c2ccccc12`, for which the melting point is 212 to 213 °C.

Turning to `O=C(CCl)Nc1ccccc1C1C=CCC1` (stereo not given), the melting point lay in the range of 101 to 102 °C.

In turn, `CC(C)NC(=O)NC1CCC(=O)c2ccccc21` (stereo not given) came in with a melting point of 185 to 188 °C.

On to `CCOc1ccc(C(C)=O)cc1S(=O)(=O)NC(=O)Nc1nc(OC)cc(OC)n1`, for which the melting point lay within 192 to 193 °C.

`CCC(=O)CN1C(=O)C2(COc3cc4c(cc32)OCCO4)c2ccccc21` (stereo not given) yielded a melting point of 182 to 183 °C.

Compound `Clc1ccc(OCCN2CCN3CC=C(c4ccncc4)N=C32)cc1` yielded a melting point of 211 to 213 °C.

Compound `N#CCS(=O)(=O)CC(=O)O` had a melting point of 104 to 105 °C.

Compound `COC(=O)c1ccc(O)c([C@H](CCN(C(C)C)C(C)C)c2ccccc2)c1` had a melting point of 102 °C.

On to `c1cc2[nH]ncc2nc1N1CCCCC1`, for which the melting point was in the range of 217 to 218 °C.

As to `Cc1cc(C2=CC3(CC(C)(C)C2CO)SCCCS3)ccc1F` (stereo not given), the melting point was 128 to 129 °C.

With `CS(=O)(=O)c1ccc(-c2cnn(-c3ccc(F)c(F)c3)c(=O)c2OCCC2CCCC2)cc1`, the melting point fell in the range of 100 to 101 °C.

`COC(=O)c1ccc(OC)cc1S(=O)(=O)Cl` displayed a melting point of 69 to 72 °C.

Consider `CCCCCNC(=N)NC(N)=S`, for which the melting point lay within 98 to 100 °C.

On to `COc1c(C#N)ccc2c1Cc1ccccc1CS2`, for which the melting point lay within 117 to 118 °C.

The compound `Cc1nc(N2CCN(CC3CC3(F)F)C2=O)sc1-c1cc[nH]n1` (stereo not given) showed a melting point of 227 to 230 °C.

As for `CC(C)(C)C(NC(=O)Cc1ccc(Cl)cc1)NC(=NC#N)Nc1cccnc1Cl` (stereo not given), the melting point lay within 174 to 175 °C.

`O=C(C=Cc1ccc(CNC2CCCCC2)cc1)Nc1ccc(-c2ccc(Cl)cc2)cc1` showed a melting point of 247 to 248 °C.

Compound `Nc1nc(-c2ccc(F)cc2)c(CCN2CCC(n3nnc4cc(F)ccc43)CC2)s1` yielded a melting point of 234 to 235 °C.

Compound `NCc1c(-c2ccc(Oc3ccccc3)cc2)c2c(N)ncnc2n1C1CCCC1` returned a melting point of 196 to 198 °C.

In the case of `Clc1cc(OC(Cl)(Cl)Cl)nc(Cl)n1`, the melting point lay in the range of 55 to 56 °C.

As for `Cc1ccc([S@@](C)=O)cc1`, the melting point was in the range of 75 to 76 °C.

In turn, `CCC(Oc1ccc(C(C)(C)CC)cc1C(C)(C)CC)C(=O)Nc1cccc(C(=O)NC2=NN(c3c(Cl)cc(Cl)cc3Cl)C(=O)C2N2CCCCC2)c1` (stereo not given) came in with a melting point of 186 to 190 °C.

As to `CCOc1nccc(-c2c(-c3ccc(F)cc3)ncn2[C@H]2CC[C@H](O)CC2)n1`, the melting point lay in the range of 184 to 186 °C.

As to `C=CCC[Si](c1ccccc1)(c1ccccc1)C1SCCCS1`, the melting point is 47 to 49 °C.

Compound `CCOC(=O)C(C(=O)C(C)C)C(c1ccc(F)cc1)c1ccccn1` (stereo not given) returned a melting point of 106 to 108 °C.

`CC(C)Oc1cccc2c1O[C@@H](COS(C)(=O)=O)CC2` registered a melting point of 77 to 78 °C.

The compound `CCN(CC)C(=O)CCCCCN1CCC(NC(=O)c2cnc3c(OC)cccc3c2Nc2ccc(C(=O)NC3CCN(Cc4ccccc4)CC3)cc2)CC1` showed a melting point of 115 to 120 °C.

`O=C(O)CNC(=O)C(CSC(=O)c1ccccc1)SC(=O)c1ccccc1` (stereo not given) yielded a melting point of 160 to 163 °C.

On to `COc1ccc2c(c1)c(CCNC(C)=O)cn2S(=O)(=O)c1ccc(C)cc1`, for which the melting point fell in the range of 132 to 133 °C.

The compound `O=C1CCC2CC(c3ccccc3)c3cccc1c32` (stereo not given) displayed a melting point of 99 °C.

With `O=S(CCC=C(F)F)NCc1ccc(Cl)cc1` (stereo not given), the melting point was 37 to 38 °C.

In turn, `Cc1cc(C)c(NC(=O)N(Cc2ccc3c(c2)Cc2ccccc2-3)C2CCCCC2)c(C)c1` displayed a melting point of 147 to 149 °C.

`O=C(CS)N[C@@H](Cc1c[nH]cn1)C(=O)O` returned a melting point of 198 to 200 °C.

`O=C(CN1C(=O)c2ccccc2C1=O)Nc1ccccc1Oc1ccccc1` came in with a melting point of 143 °C.

`COC(=O)c1cscc1NC(=O)COc1ccc(-c2ccc(F)cc2)cc1` returned a melting point of 127 to 130 °C.

`CC(C)(C)OC(=O)NCC[C@H]1CC[C@H](CO)CC1` showed a melting point of 75 to 76 °C.

The compound `CC(C=CC=C(C)CCCC(C)CCCC(C)C)=CC(=O)O` (stereo not given) registered a melting point of 84.5 to 85.5 °C.

`C=C(C)Cc1c(C)c2c(c(C)c1O)CC(C)(C)N2C=O` came in with a melting point of 166 to 168 °C.

`O=Cc1cc(O)c(OCc2ccccc2)cc1O` yielded a melting point of 147 to 148 °C.

Compound `CN(CCOc1ccc2c(c1)OC(C)(C)C=C2c1ccc2ccccc2c1)Cc1ccccc1` displayed a melting point of 112 to 115 °C.

`O=C(O)C1CSC(C2CCCCC2)=NN1C(=O)CCS` (stereo not given) had a melting point of 95 to 97 °C.

As to `N#CC(C(=O)c1ccc(NS(=O)(=O)C(F)(F)F)cc1)=C1CCCCN1`, the melting point worked out at 197 °C.

`NC(=O)N(O)CCOCc1ccoc1` came in with a melting point of 99 to 101 °C.

Consider `NC(=S)Nc1ccccc1-c1ccccc1`, for which the melting point was in the range of 183 to 184 °C.

As for `c1ccc(NN2CCc3ccccc32)cc1`, the melting point was 182 to 183 °C.

`CCCCCCCCCCC1(CCCCCCCCCC)c2cc(Br)ccc2-c2ccc(-c3cccs3)cc21` returned a melting point of 36.9 to 38.4 °C.

The compound `COC1(OC)C2(Cl)C(Cl)=C(Cl)C1(Cl)C(O)C2O` (stereo not given) displayed a melting point of 160 to 162 °C.

The compound `COc1c(Cl)ccc(Cl)c1C(=O)NO` displayed a melting point of 150 °C.

In turn, `CC(=O)Oc1ccc(-c2ccc(O)cc2)cc1` returned a melting point of 204 to 207 °C.

`N#Cc1ccsc1-c1[nH]c(=O)c(-c2ccccc2)cc1C(=O)O`: the melting point was in the range of 255 to 257 °C.

In turn, `CN(C)C(c1ccccc1)C1CCCCC1(O)Cc1cccc(F)c1` (stereo not given) showed a melting point of 146 to 147 °C.

Consider `CCOC(=O)C(CC(=O)c1ccc(Oc2ccc(C)cc2)cc1)SC(C)=O` (stereo not given), for which the melting point lay in the range of 85 to 86.5 °C.

For the compound `c1cncc(Cn2c(-c3ccc4c(c3)OCO4)nc3ccccc32)c1`, the melting point was 152 to 153 °C.

Compound `ON=C(Cn1cncn1)c1ccc(Cl)cc1Cl` registered a melting point of 117 °C.

In turn, `CC(C)Cn1cc(C(N)=O)c(N)n1` registered a melting point of 154 to 158 °C.

For `CCOC(=O)C(C#N)c1cn(C(=O)OCC)c2ccc(OC)cc12` (stereo not given), the melting point is 81 to 83 °C.

The compound `Nc1ncccc1C(=O)NCC1CCN(C[C@H]2COc3cccc(C(F)(F)F)c3O2)CC1` gave a melting point of 101 to 103 °C.

As to `C=CCOc1ccc(-c2ccc(C(=O)O)cc2)cc1`, the melting point is 360 °C.

Consider `CCOC(=O)CCN(C)Cc1ccc(NC(=O)C2=Cc3cc(-c4ccc(N5CCOCC5)cc4)ccc3S(=O)(=O)CC2)cc1`, for which the melting point lay within 209 to 211 °C.

For `CCCCCCOc1ccc(CCC(=O)O)cc1`, the melting point was in the range of 70 to 72 °C.

As to `Cn1nc2n(c1=O)-c1ccc(Cl)cc1C(c1ccccc1F)=CC2`, the melting point lay within 142 to 143 °C.

The compound `CC(C)(N)c1ccc(C(=O)Nc2cn3cc(Cl)ccc3n2)cc1` returned a melting point of 235 to 237 °C.

Compound `O=C(Cc1c(-c2ccccc2)c2cc(O)c(Cl)cc2oc1=O)Nc1ccc(Cl)cc1C(F)(F)F` registered a melting point of 246 to 247 °C.

For `COC(=O)c1cccc(Cl)c1NC(C)=O`, the melting point lay within 135 to 136 °C.

The compound `CCOC(=O)C1=C(C)NC(C)=C(C(=O)OCC)C1c1ccccc1/C=C/C(=O)OC1CCCC1` displayed a melting point of 182 to 184 °C.

The compound `CCOC(=O)C1=C(C)NC(C)=C(C(=O)OCC)C1c1cc(Cl)ccc1Cl` returned a melting point of 166 to 168 °C.

`CC[C@@H]1NC(C)(C)CO[C@@]1(O)c1cccc(Cl)c1` yielded a melting point of 160 to 161 °C.

`O=C(O)C1Cc2c(c(Cl)cc3c(-c4ccccc4Cl)noc23)O1` (stereo not given) had a melting point of 220 to 222 °C.

Consider `CSc1cccc(C(=C2CN(C(c3ccccc3)c3ccccc3)C2)S(C)(=O)=O)c1`, for which the melting point was found to be 146 °C.

Compound `COC(=O)c1ccc2sc(C(=O)OC)c(O)c2c1Cl` had a melting point of 127 to 131 °C.

On to `CC(=O)Nc1nc2ccc(S(=O)(=O)n3c(COC(C)C(=O)O)cc4nc(Cl)ccc43)cc2s1` (stereo not given), for which the melting point fell in the range of 257 to 260 °C.

`COc1cccc(/C=C/c2ccc(C(=O)O)cc2)c1` gave a melting point of 200 to 205 °C.

`COCCc1nc2c(N)nc3cc(-c4cccc(CO)c4)ccc3c2n1CC(C)(C)O` returned a melting point of 212 to 213 °C.

`Nc1nnc(-c2cccc(F)c2F)c(N)n1` showed a melting point of 229 to 230 °C.

In turn, `CCCCOc1c(NCCCBr)c(=O)c1=O` yielded a melting point of 56 to 57 °C.

In the case of `O=[N+]([O-])c1ccc(Oc2cc3ccccc3cc2Oc2ccc([N+](=O)[O-])c(O)c2)cc1O`, the melting point is 179 to 181 °C.

Compound `O=c1cc(-c2nc[nH]n2)oc2ccccc12` showed a melting point of 210 °C.

As to `Cn1cc(-c2cc(-c3ccsc3)ccn2)n(-c2ccc(C(C)(C)C#N)cc2)c1=O`, the melting point amounted to 209 °C.

In turn, `CCOC(=O)c1cc(N=Cc2ccccc2)ccc1OC(C)=O` came in with a melting point of 79 to 80 °C.

The compound `CN(C(CCN1C(=O)c2ccccc2C1=O)C(=O)O)S(=O)(=O)c1ccc(Oc2ccc(Cl)cc2)cc1` (stereo not given) displayed a melting point of 166 to 167 °C.

The compound `CCCCC(c1ccc2[nH]c(=O)c(-c3ccccc3)nc2c1)n1ccnc1` (stereo not given) came in with a melting point of 192 °C.

For `CCCC(=O)Oc1cc2c(s1)CCN(C(C(=O)C1CC1)c1ccccc1F)C2` (stereo not given), the melting point was 84 to 85 °C.

`CCOC(=O)c1cn(Cc2ccccc2OC)c2sc(-c3ccc(OC)cc3)c(CBr)c2c1=O` displayed a melting point of 200 to 201 °C.

Consider `O=[N+]([O-])c1cn2c(n1)O[C@@H](COc1ccc(N3CCC(CCc4ccc(OC(F)(F)F)cc4)CC3)cc1)C2`, for which the melting point lay in the range of 209 to 212 °C.

In the case of `CCOC(=O)c1c(C)cc2c(c1C)c(=O)n(-c1ccccc1Cl)c(=O)n2CCCN(C)Cc1ccccc1`, the melting point is 145 to 146 °C.

As to `O=C1CCC(OCc2ccccc2)N1S(=O)(=O)c1ccccc1` (stereo not given), the melting point was in the range of 80 to 81 °C.

`CC(C)Cn1c(CN)c(-c2ccccc2)c2cc(SCC(N)=O)ccc2c1=O` displayed a melting point of 218 to 220 °C.

For `O=C(N(CCCc1ccncc1)Cc1ccccc1)N(CCCc1ccccc1)C1CCCCC1`, the melting point is 107 to 112 °C.

The compound `CS(=O)(=O)NC(=O)c1ccc(Cl)cc1NC(=O)c1cc(-c2ccc(Cl)cc2)oc1C(F)(F)F` gave a melting point of 259 to 262 °C.

Turning to `Sc1nsnc1-c1c(Cl)cccc1Cl`, the melting point was in the range of 91 to 94 °C.
